Results: ChEMBL document CHEMBL5724914, “Linking interpersonal differences in gut microbiota composition and drug biotransformation activity” (2024)

Assay: (§1) The drug is tested on Z-030 corresponding to mouse gut metagenome with ENA study accession number: PRJEB37062 and ENA sample accession number: ERS12561829 for biotransformation under anaerobic condition. The drug concentrations were measured over 9 timepoints collected between 0 and 24 hours of incubation by liquid-chromatography-coupled mass spectrometry (LC–MS)
Settings: 2 µM
Further: call rule not given here.

Row | Bacterial Biotransformation | SMILES
1 | Compound NOT metabolized | CC(C)(Oc1ccc(CCNC(=O)c2ccc(Cl)cc2)cc1)C(=O)O [BEZAFIBRATE]
2 | Compound NOT metabolized | OCCOCCN1CCN(C2=Nc3ccccc3Sc3ccccc32)CC1 [QUETIAPINE]
3 | Compound NOT metabolized | COc1cc2nc(N3CCN(C(=O)c4ccco4)CC3)nc(N)c2cc1OC [PRAZOSIN]
4 | Compound NOT metabolized | O=C(O)COCCN1CCN(C(c2ccccc2)c2ccc(Cl)cc2)CC1 (stereo not given) [CETIRIZINE]

Assay: as §1, with “Z-028” for “Z-030”, “ERS12561827” for “ERS12561829”
Settings: 2 µM

Row | Bacterial Biotransformation | SMILES
5 | Compound NOT metabolized | CC(C)(Oc1ccc(CCNC(=O)c2ccc(Cl)cc2)cc1)C(=O)O [BEZAFIBRATE]
6 | Compound NOT metabolized | OCCOCCN1CCN(C2=Nc3ccccc3Sc3ccccc32)CC1 [QUETIAPINE]
7 | Compound NOT metabolized | COc1cc2nc(N3CCN(C(=O)c4ccco4)CC3)nc(N)c2cc1OC [PRAZOSIN]
8 | Compound NOT metabolized | O=C(O)COCCN1CCN(C(c2ccccc2)c2ccc(Cl)cc2)CC1 (stereo not given) [CETIRIZINE]

Assay: as §1, with “Z-027” for “Z-030”, “to” for “to mouse gut”, “ERS12561826” for “ERS12561829”
Settings: 2 µM

Row | Bacterial Biotransformation | SMILES
9 | Compound NOT metabolized | CC(C)(Oc1ccc(CCNC(=O)c2ccc(Cl)cc2)cc1)C(=O)O [BEZAFIBRATE]
10 | Compound NOT metabolized | OCCOCCN1CCN(C2=Nc3ccccc3Sc3ccccc32)CC1 [QUETIAPINE]
11 | Compound NOT metabolized | COc1cc2nc(N3CCN(C(=O)c4ccco4)CC3)nc(N)c2cc1OC [PRAZOSIN]
12 | Compound NOT metabolized | O=C(O)COCCN1CCN(C(c2ccccc2)c2ccc(Cl)cc2)CC1 (stereo not given) [CETIRIZINE]

Assay: as §1, with “Z-026” for “Z-030”, “to” for “to mouse gut”, “ERS12561825” for “ERS12561829”
Settings: 2 µM

Row | Bacterial Biotransformation | SMILES
13 | Compound NOT metabolized | CC(C)(Oc1ccc(CCNC(=O)c2ccc(Cl)cc2)cc1)C(=O)O [BEZAFIBRATE]
14 | Compound NOT metabolized | OCCOCCN1CCN(C2=Nc3ccccc3Sc3ccccc32)CC1 [QUETIAPINE]
15 | Compound NOT metabolized | COc1cc2nc(N3CCN(C(=O)c4ccco4)CC3)nc(N)c2cc1OC [PRAZOSIN]
16 | Compound NOT metabolized | O=C(O)COCCN1CCN(C(c2ccccc2)c2ccc(Cl)cc2)CC1 (stereo not given) [CETIRIZINE]

Assay: as §1, with “Z-024” for “Z-030”, “pig” for “mouse”, “ERS12561823” for “ERS12561829”
Settings: 2 µM

Row | Bacterial Biotransformation | SMILES
17 | Compound metabolized | CC(C)(Oc1ccc(CCNC(=O)c2ccc(Cl)cc2)cc1)C(=O)O [BEZAFIBRATE]
18 | Compound metabolized | OCCOCCN1CCN(C2=Nc3ccccc3Sc3ccccc32)CC1 [QUETIAPINE]
19 | Compound NOT metabolized | COc1cc2nc(N3CCN(C(=O)c4ccco4)CC3)nc(N)c2cc1OC [PRAZOSIN]
20 | Compound metabolized | O=C(O)COCCN1CCN(C(c2ccccc2)c2ccc(Cl)cc2)CC1 (stereo not given) [CETIRIZINE]

Assay: as §1, with “Z-020” for “Z-030”, “rabbit” for “mouse”, “ERS12561819” for “ERS12561829”
Settings: 2 µM

Row | Bacterial Biotransformation | SMILES
21 | Compound NOT metabolized | CC(C)(Oc1ccc(CCNC(=O)c2ccc(Cl)cc2)cc1)C(=O)O [BEZAFIBRATE]
22 | Compound NOT metabolized | OCCOCCN1CCN(C2=Nc3ccccc3Sc3ccccc32)CC1 [QUETIAPINE]
23 | Compound NOT metabolized | COc1cc2nc(N3CCN(C(=O)c4ccco4)CC3)nc(N)c2cc1OC [PRAZOSIN]
24 | Compound NOT metabolized | O=C(O)COCCN1CCN(C(c2ccccc2)c2ccc(Cl)cc2)CC1 (stereo not given) [CETIRIZINE]

Assay: as §1, with “Z-010” for “Z-030”, “to” for “to mouse gut”, “ERS12561810” for “ERS12561829”
Settings: 2 µM

Row | Bacterial Biotransformation | SMILES
25 | Compound metabolized | CC(C)(Oc1ccc(CCNC(=O)c2ccc(Cl)cc2)cc1)C(=O)O [BEZAFIBRATE]
26 | Compound NOT metabolized | OCCOCCN1CCN(C2=Nc3ccccc3Sc3ccccc32)CC1 [QUETIAPINE]
27 | Compound NOT metabolized | COc1cc2nc(N3CCN(C(=O)c4ccco4)CC3)nc(N)c2cc1OC [PRAZOSIN]
28 | Compound metabolized | O=C(O)COCCN1CCN(C(c2ccccc2)c2ccc(Cl)cc2)CC1 (stereo not given) [CETIRIZINE]

Assay: as §1, with “Z-004” for “Z-030”, “to” for “to mouse gut”, “ERS12561804” for “ERS12561829”
Settings: 2 µM

Row | Bacterial Biotransformation | SMILES
29 | Compound NOT metabolized | CC(C)(Oc1ccc(CCNC(=O)c2ccc(Cl)cc2)cc1)C(=O)O [BEZAFIBRATE]
30 | Compound metabolized | OCCOCCN1CCN(C2=Nc3ccccc3Sc3ccccc32)CC1 [QUETIAPINE]
31 | Compound NOT metabolized | COc1cc2nc(N3CCN(C(=O)c4ccco4)CC3)nc(N)c2cc1OC [PRAZOSIN]
32 | Compound metabolized | O=C(O)COCCN1CCN(C(c2ccccc2)c2ccc(Cl)cc2)CC1 (stereo not given) [CETIRIZINE]

Assay: as §1, with “Z-002” for “Z-030”, “rabbit” for “mouse”, “ERS12561802” for “ERS12561829”
Settings: 2 µM

Row | Bacterial Biotransformation | SMILES
33 | Compound metabolized | CC(C)(Oc1ccc(CCNC(=O)c2ccc(Cl)cc2)cc1)C(=O)O [BEZAFIBRATE]
34 | Compound metabolized | OCCOCCN1CCN(C2=Nc3ccccc3Sc3ccccc32)CC1 [QUETIAPINE]
35 | Compound NOT metabolized | COc1cc2nc(N3CCN(C(=O)c4ccco4)CC3)nc(N)c2cc1OC [PRAZOSIN]
36 | Compound metabolized | O=C(O)COCCN1CCN(C(c2ccccc2)c2ccc(Cl)cc2)CC1 (stereo not given) [CETIRIZINE]

Assay: as §1, with “Z-001” for “Z-030”, “ERS12561801” for “ERS12561829”
Settings: 2 µM

Row | Bacterial Biotransformation | SMILES
37 | Compound NOT metabolized | CC(C)(Oc1ccc(CCNC(=O)c2ccc(Cl)cc2)cc1)C(=O)O [BEZAFIBRATE]
38 | Compound NOT metabolized | OCCOCCN1CCN(C2=Nc3ccccc3Sc3ccccc32)CC1 [QUETIAPINE]
39 | Compound NOT metabolized | COc1cc2nc(N3CCN(C(=O)c4ccco4)CC3)nc(N)c2cc1OC [PRAZOSIN]
40 | Compound NOT metabolized | O=C(O)COCCN1CCN(C(c2ccccc2)c2ccc(Cl)cc2)CC1 (stereo not given) [CETIRIZINE]

Assay: as §1, with “WLS-370” for “Z-030”, “human” for “mouse”, “ERS12561793” for “ERS12561829”
Settings: 2 µM

Row | Bacterial Biotransformation | SMILES
41 | Compound metabolized | CC(C)(Oc1ccc(CCNC(=O)c2ccc(Cl)cc2)cc1)C(=O)O [BEZAFIBRATE]
42 | Compound metabolized | OCCOCCN1CCN(C2=Nc3ccccc3Sc3ccccc32)CC1 [QUETIAPINE]
43 | Compound metabolized | COc1cc2nc(N3CCN(C(=O)c4ccco4)CC3)nc(N)c2cc1OC [PRAZOSIN]
44 | Compound metabolized | O=C(O)COCCN1CCN(C(c2ccccc2)c2ccc(Cl)cc2)CC1 (stereo not given) [CETIRIZINE]

Assay: as §1, with “WLS-170” for “Z-030”, “human” for “mouse”, “ERS12561762” for “ERS12561829”
Settings: 2 µM

Row | Bacterial Biotransformation | SMILES
45 | Compound metabolized | CC(C)(Oc1ccc(CCNC(=O)c2ccc(Cl)cc2)cc1)C(=O)O [BEZAFIBRATE]
46 | Compound metabolized | OCCOCCN1CCN(C2=Nc3ccccc3Sc3ccccc32)CC1 [QUETIAPINE]
47 | Compound metabolized | COc1cc2nc(N3CCN(C(=O)c4ccco4)CC3)nc(N)c2cc1OC [PRAZOSIN]
48 | Compound metabolized | O=C(O)COCCN1CCN(C(c2ccccc2)c2ccc(Cl)cc2)CC1 (stereo not given) [CETIRIZINE]

Assay: as §1, with “WLS-090” for “Z-030”, “human” for “mouse”, “ERS12561753” for “ERS12561829”
Settings: 2 µM

Row | Bacterial Biotransformation | SMILES
49 | Compound metabolized | CC(C)(Oc1ccc(CCNC(=O)c2ccc(Cl)cc2)cc1)C(=O)O [BEZAFIBRATE]
50 | Compound metabolized | OCCOCCN1CCN(C2=Nc3ccccc3Sc3ccccc32)CC1 [QUETIAPINE]
51 | Compound metabolized | COc1cc2nc(N3CCN(C(=O)c4ccco4)CC3)nc(N)c2cc1OC [PRAZOSIN]
52 | Compound metabolized | O=C(O)COCCN1CCN(C(c2ccccc2)c2ccc(Cl)cc2)CC1 (stereo not given) [CETIRIZINE]

Settings: human gut metagenome, 24 h, 2 µM

Row | Bacterial Biotransformation | SMILES
53 | Compound metabolized | CC(C)(Oc1ccc(CCNC(=O)c2ccc(Cl)cc2)cc1)C(=O)O [BEZAFIBRATE]
54 | Compound NOT metabolized | OCCOCCN1CCN(C2=Nc3ccccc3Sc3ccccc32)CC1 [QUETIAPINE]
55 | Compound NOT metabolized | COc1cc2nc(N3CCN(C(=O)c4ccco4)CC3)nc(N)c2cc1OC [PRAZOSIN]
56 | Compound metabolized | O=C(O)COCCN1CCN(C(c2ccccc2)c2ccc(Cl)cc2)CC1 (stereo not given) [CETIRIZINE]

Settings: human gut metagenome, 24 h, 2 µM
Remark: another data set of the same source

Row | Bacterial Biotransformation | SMILES
57 | Compound metabolized | CC(C)(Oc1ccc(CCNC(=O)c2ccc(Cl)cc2)cc1)C(=O)O [BEZAFIBRATE]
58 | Compound metabolized | OCCOCCN1CCN(C2=Nc3ccccc3Sc3ccccc32)CC1 [QUETIAPINE]
59 | Compound metabolized | COc1cc2nc(N3CCN(C(=O)c4ccco4)CC3)nc(N)c2cc1OC [PRAZOSIN]
60 | Compound metabolized | O=C(O)COCCN1CCN(C(c2ccccc2)c2ccc(Cl)cc2)CC1 (stereo not given) [CETIRIZINE]

Settings: human gut metagenome, 24 h, 2 µM
Remark: another data set of the same source

Row | Bacterial Biotransformation | SMILES
61 | Compound metabolized | CC(C)(Oc1ccc(CCNC(=O)c2ccc(Cl)cc2)cc1)C(=O)O [BEZAFIBRATE]
62 | Compound NOT metabolized | OCCOCCN1CCN(C2=Nc3ccccc3Sc3ccccc32)CC1 [QUETIAPINE]
63 | Compound NOT metabolized | COc1cc2nc(N3CCN(C(=O)c4ccco4)CC3)nc(N)c2cc1OC [PRAZOSIN]
64 | Compound metabolized | O=C(O)COCCN1CCN(C(c2ccccc2)c2ccc(Cl)cc2)CC1 (stereo not given) [CETIRIZINE]

Settings: human gut metagenome, 24 h, 2 µM
Remark: another data set of the same source

Row | Bacterial Biotransformation | SMILES
65 | Compound metabolized | CC(C)(Oc1ccc(CCNC(=O)c2ccc(Cl)cc2)cc1)C(=O)O [BEZAFIBRATE]
66 | Compound NOT metabolized | OCCOCCN1CCN(C2=Nc3ccccc3Sc3ccccc32)CC1 [QUETIAPINE]
67 | Compound NOT metabolized | COc1cc2nc(N3CCN(C(=O)c4ccco4)CC3)nc(N)c2cc1OC [PRAZOSIN]
68 | Compound metabolized | O=C(O)COCCN1CCN(C(c2ccccc2)c2ccc(Cl)cc2)CC1 (stereo not given) [CETIRIZINE]

Settings: human gut metagenome, 24 h, 2 µM
Remark: another data set of the same source

Row | Bacterial Biotransformation | SMILES
69 | Compound metabolized | CC(C)(Oc1ccc(CCNC(=O)c2ccc(Cl)cc2)cc1)C(=O)O [BEZAFIBRATE]
70 | Compound NOT metabolized | OCCOCCN1CCN(C2=Nc3ccccc3Sc3ccccc32)CC1 [QUETIAPINE]
71 | Compound NOT metabolized | COc1cc2nc(N3CCN(C(=O)c4ccco4)CC3)nc(N)c2cc1OC [PRAZOSIN]
72 | Compound metabolized | O=C(O)COCCN1CCN(C(c2ccccc2)c2ccc(Cl)cc2)CC1 (stereo not given) [CETIRIZINE]

Settings: human gut metagenome, 24 h, 2 µM
Remark: another data set of the same source

Row | Bacterial Biotransformation | SMILES
73 | Compound metabolized | CC(C)(Oc1ccc(CCNC(=O)c2ccc(Cl)cc2)cc1)C(=O)O [BEZAFIBRATE]
74 | Compound metabolized | OCCOCCN1CCN(C2=Nc3ccccc3Sc3ccccc32)CC1 [QUETIAPINE]
75 | Compound metabolized | COc1cc2nc(N3CCN(C(=O)c4ccco4)CC3)nc(N)c2cc1OC [PRAZOSIN]
76 | Compound metabolized | O=C(O)COCCN1CCN(C(c2ccccc2)c2ccc(Cl)cc2)CC1 (stereo not given) [CETIRIZINE]

Settings: human gut metagenome, 24 h, 2 µM
Remark: another data set of the same source

Row | Bacterial Biotransformation | SMILES
77 | Compound metabolized | CC(C)(Oc1ccc(CCNC(=O)c2ccc(Cl)cc2)cc1)C(=O)O [BEZAFIBRATE]
78 | Compound metabolized | OCCOCCN1CCN(C2=Nc3ccccc3Sc3ccccc32)CC1 [QUETIAPINE]
79 | Compound metabolized | COc1cc2nc(N3CCN(C(=O)c4ccco4)CC3)nc(N)c2cc1OC [PRAZOSIN]
80 | Compound metabolized | O=C(O)COCCN1CCN(C(c2ccccc2)c2ccc(Cl)cc2)CC1 (stereo not given) [CETIRIZINE]
